Source: US20120121591A1 (priority 2009, published 2012)
Positions of bridges follow the written chain, without caps; N, C: chain ends. Residues, ends and D or L forms follow the SMILES beside them.

Assays:
Assay type in all cases: cell-based
[1] = test system: IFN-g secretion from T cells in human whole blood; settings: read-out: WB (IFNg) IC50 (nM, Avg)
hKv1.3 = hKv1.3 (Homo sapiens, UniProt P22001); experiment: cell-based; settings: Kv1.3 (IWQ) IC50 (nM, Avg)
[2] = test system: IL-2 secretion from T cells in human whole blood; settings: read-out: WB (IL-2) IC50 (nM, Avg)

hKv1.3, sequence (P22001 whole entry): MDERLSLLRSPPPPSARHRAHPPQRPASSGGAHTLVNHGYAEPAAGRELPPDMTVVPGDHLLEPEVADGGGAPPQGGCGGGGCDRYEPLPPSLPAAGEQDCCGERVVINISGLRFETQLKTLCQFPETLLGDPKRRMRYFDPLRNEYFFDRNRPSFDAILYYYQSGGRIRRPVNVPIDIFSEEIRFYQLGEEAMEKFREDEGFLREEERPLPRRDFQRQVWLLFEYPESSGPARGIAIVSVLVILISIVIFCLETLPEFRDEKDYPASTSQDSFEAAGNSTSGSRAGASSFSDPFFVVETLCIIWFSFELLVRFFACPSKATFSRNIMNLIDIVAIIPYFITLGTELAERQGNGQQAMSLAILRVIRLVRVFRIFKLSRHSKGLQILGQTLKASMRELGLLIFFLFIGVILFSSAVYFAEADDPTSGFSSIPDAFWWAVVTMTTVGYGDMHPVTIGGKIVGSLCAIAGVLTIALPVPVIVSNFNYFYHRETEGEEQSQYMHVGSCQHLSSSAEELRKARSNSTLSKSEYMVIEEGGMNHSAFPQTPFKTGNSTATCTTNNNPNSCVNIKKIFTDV

**Q.** `CCCC[C@@H]1NC(=O)[C@H](CO)NC(=O)[C@H](Cc2c[nH]cn2)NC(=O)[C@H](CCCCN)NC(=O)[C@@H]2CSSC[C@@H]3NC(=O)[C@H]([C@@H](C)O)NC(=O)[C@H](CCCCN)NC(=O)[C@H](CCCNC(=N)N)NC(=O)[C@H](CSSC[C@H](NC(=O)[C@H](CCCNC(=N)N)NC(=O)[C@H](CO)NC(=O)[C@H](CCCCN)NC(=O)[C@@H]4CCCN4C(=O)[C@H]([C@@H](C)CC)NC(=O)[C@H]([C@@H](C)O)NC(=O)[C@H](CC(=O)O)NC(=O)[C@H]([C@@H](C)CC)NC(=O)[C@@H](NC(=O)[C@H](CO)NC(=O)[C@@H](N)CCCNC(=N)N)CSSC[C@@H](C(N)=O)NC(=O)[C@H]([C@@H](C)O)NC(=O)CNC3=O)C(=O)N[C@@H]([C@@H](C)O)C(=O)N[C@@H](C)C(=O)N[C@@H](Cc3ccccc3)C(=O)N[C@@H](Cc3c[nH]cn3)C(=O)N2)NC(=O)[C@H](Cc2ccccc2)NC(=O)[C@H](CO)NC(=O)[C@H](CC(C)C)NC(=O)[C@H](CCCNC(=N)N)NC(=O)[C@H](Cc2ccc(O)cc2)NC(=O)[C@H](CCCCN)NC1=O` [[His, Nle21]ShK-amide] was tested. Which IC50 [1] did it give?
**A.** 0.148 nM

**Q.** And the IC50 (hKv1.3)?
**A.** 0.139 nM

**Q.** What about the IC50 [2] of the same molecule?
**A.** 0.24 nM

**Q.** With `CC[C@H](C)[C@@H]1NC(=O)[C@H]([C@@H](C)O)NC(=O)[C@H](CC(=O)O)NC(=O)[C@H](CCC(=O)O)NC(=O)[C@@H](NC(=O)[C@H](CO)NC(=O)[C@@H](N)CCCNC(=N)N)CSSC[C@@H](C(N)=O)NC(=O)[C@H]([C@@H](C)O)NC(=O)CNC(=O)[C@@H]2CSSC[C@@H]3NC(=O)[C@H](CCCCN)NC(=O)[C@H](Cc4ccccc4)NC(=O)[C@H](C)NC(=O)[C@H]([C@@H](C)O)NC(=O)[C@H](CSSC[C@H](NC(=O)[C@H](Cc4ccccc4)NC(=O)[C@H](CO)NC(=O)[C@H](CC(C)C)NC(=O)[C@H](CCCNC(=N)N)NC(=O)[C@H](Cc4ccc(O)cc4)NC(=O)[C@H](CCCCN)NC(=O)[C@H](CCSC)NC(=O)[C@H](CO)NC(=O)[C@H](Cc4c[nH]cn4)NC(=O)[C@H](CCCNC(=N)N)NC3=O)C(=O)N[C@@H](CCCCN)C(=O)N[C@@H](CCCNC(=N)N)C(=O)N[C@@H]([C@@H](C)O)C(=O)N2)NC(=O)[C@H](CCCNC(=N)N)NC(=O)[C@H](CCC(=O)O)NC(=O)[C@H](CCC(=O)O)NC(=O)[C@@H]2CCCN2C1=O` [[Glu4,9,10; Lys16,29;Arg18, 30]ShK-amide] (H-RSCEDTIPEERCTAFKCRHSMKYRLSFCKRTCGTC-NH2; disulfide 3-35, 12-28, 17-32) as the molecule, how does the IC50 [1] read?
**A.** 0.513 nM

**Q.** And the IC50 (hKv1.3)?
**A.** 0.059 nM

**Q.** And the IC50 [2]?
**A.** 0.204 nM

**Q.** For `CC[C@H](C)[C@@H]1NC(=O)[C@@H](NC(=O)[C@H](CO)NC(=O)[C@@H](N)CCCNC(=N)N)CSSC[C@@H](C(N)=O)NC(=O)[C@H]([C@@H](C)O)NC(=O)CNC(=O)[C@@H]2CSSC[C@@H]3NC(=O)[C@H](CCCCN)NC(=O)[C@H](Cc4ccccc4)NC(=O)[C@H](C)NC(=O)[C@H]([C@@H](C)O)NC(=O)[C@H](CSSC[C@H](NC(=O)[C@H](Cc4ccccc4)NC(=O)[C@H](CO)NC(=O)[C@H](CC(C)C)NC(=O)[C@H](CCCNC(=N)N)NC(=O)[C@H](Cc4ccc(O)cc4)NC(=O)[C@H](CCCCN)NC(=O)[C@H]([C@@H](C)O)NC(=O)[C@H](CO)NC(=O)[C@H](Cc4c[nH]cn4)NC(=O)[C@H](CCCCN)NC3=O)C(=O)N[C@@H](CCCNC(=N)N)C(=O)N[C@@H](CCCCN)C(=O)N[C@@H]([C@@H](C)O)C(=O)N2)NC(=O)[C@H](CCCNC(=N)N)NC(=O)[C@H](CO)NC(=O)[C@H](CCCCN)NC(=O)[C@@H]2CCCN2C(=O)[C@H]([C@@H](C)CC)NC(=O)[C@H]([C@@H](C)O)NC(=O)[C@H](CC(=O)O)NC1=O` [[Lys16, Thr21]ShK-amide], which IC50 [1] is on record?
**A.** 2.98 nM

**Q.** What about the IC50 (hKv1.3) of the same molecule?
**A.** 0.058 nM

**Q.** What about the IC50 [2] of the same molecule?
**A.** 1.55 nM

**Q.** For `CC[C@H](C)[C@@H]1NC(=O)[C@H]([C@@H](C)O)NC(=O)[C@H](CC(=O)O)NC(=O)[C@H](CCC(=O)O)NC(=O)[C@@H](NC(=O)[C@H](CO)NC(=O)[C@@H](N)CCCNC(=N)N)CSSC[C@@H](C(N)=O)NC(=O)[C@H]([C@@H](C)O)NC(=O)CNC(=O)[C@@H]2CSSC[C@@H]3NC(=O)[C@H](CCCCN)NC(=O)[C@H](Cc4ccccc4)NC(=O)[C@H](C)NC(=O)[C@H]([C@@H](C)O)NC(=O)[C@H](CSSC[C@H](NC(=O)[C@H](Cc4ccccc4)NC(=O)[C@H](CO)NC(=O)[C@H](CC(C)C)NC(=O)[C@H](CCCNC(=N)N)NC(=O)[C@H](Cc4ccc(O)cc4)NC(=O)[C@H](CCCCN)NC(=O)[C@H](CCSC)NC(=O)[C@H](CO)NC(=O)[C@H](Cc4c[nH]cn4)NC(=O)[C@H](CCCCN)NC3=O)C(=O)N[C@@H](CCCCN)C(=O)N[C@@H](CCCNC(=N)N)C(=O)N[C@@H]([C@@H](C)O)C(=O)N2)NC(=O)[C@H](CCCNC(=N)N)NC(=O)[C@H](CO)NC(=O)[C@H](CCCCN)NC(=O)[C@@H]2CCCN2C1=O` [[Glu4; Lys16,29;Arg30]ShK-amide], which IC50 [1] is on record?
**A.** 0.28 nM

**Q.** And the IC50 (hKv1.3)?
**A.** 0.104 nM

**Q.** And the IC50 [2]?
**A.** 0.067 nM

**Q.** Which results are given for `CC[C@H](C)[C@@H]1NC(=O)[C@@H](NC(=O)[C@H](CO)NC(=O)[C@@H](N)CCCNC(=N)N)CSSC[C@@H](C(=O)O)NC(=O)[C@H]([C@@H](C)O)NC(=O)CNC(=O)[C@@H]2CSSC[C@@H]3NC(=O)[C@H](CCC(N)=O)NC(=O)[C@H](Cc4ccccc4)NC(=O)[C@H](C)NC(=O)[C@H]([C@@H](C)O)NC(=O)[C@H](CSSC[C@H](NC(=O)[C@H](Cc4ccccc4)NC(=O)[C@H](CO)NC(=O)[C@H](CC(C)C)NC(=O)[C@H](CCCNC(=N)N)NC(=O)[C@H](Cc4ccc(O)cc4)NC(=O)[C@H](CCCCN)NC(=O)[C@H](CCSC)NC(=O)[C@H](CO)NC(=O)[C@H](Cc4c[nH]cn4)NC(=O)[C@H](CCCCN)NC3=O)C(=O)N[C@@H](CCCNC(=N)N)C(=O)N[C@@H](CCCCN)C(=O)N[C@@H](CCCCN)C(=O)N2)NC(=O)[C@H](CCCNC(=N)N)NC(=O)[C@H](CO)NC(=O)[C@H](CCCCN)NC(=O)[C@@H]2CCCN2C(=O)[C@H]([C@@H](C)CC)NC(=O)[C@H]([C@@H](C)O)NC(=O)[C@H](CC(=O)O)NC1=O` [[Lys31]ShK]?
**A.** IC50 [1]: 27.9 nM; IC50 (hKv1.3): 1.42 nM; IC50 [2]: 5.98 nM

**Q.** Which IC50 [1] does the source give for `CC[C@H](C)[C@@H]1NC(=O)[C@@H](NC(=O)[C@H](CO)NC(=O)[C@@H](N)CCCNC(=N)N)CSSC[C@@H](C(=O)O)NC(=O)[C@H](CCCCN)NC(=O)CNC(=O)[C@@H]2CSSC[C@@H]3NC(=O)[C@H](CCC(N)=O)NC(=O)[C@H](Cc4ccccc4)NC(=O)[C@H](C)NC(=O)[C@H]([C@@H](C)O)NC(=O)[C@H](CSSC[C@H](NC(=O)[C@H](Cc4ccccc4)NC(=O)[C@H](CO)NC(=O)[C@H](CC(C)C)NC(=O)[C@H](CCCNC(=N)N)NC(=O)[C@H](Cc4ccc(O)cc4)NC(=O)[C@H](CCCCN)NC(=O)[C@H](CCSC)NC(=O)[C@H](CO)NC(=O)[C@H](Cc4c[nH]cn4)NC(=O)[C@H](CCCCN)NC3=O)C(=O)N[C@@H](CCCNC(=N)N)C(=O)N[C@@H](CCCCN)C(=O)N[C@@H]([C@@H](C)O)C(=O)N2)NC(=O)[C@H](CCCNC(=N)N)NC(=O)[C@H](CO)NC(=O)[C@H](CCCCN)NC(=O)[C@@H]2CCCN2C(=O)[C@H]([C@@H](C)CC)NC(=O)[C@H]([C@@H](C)O)NC(=O)[C@H](CC(=O)O)NC1=O` [[Lys34]ShK] here?
**A.** 0.136 nM

**Q.** And the IC50 (hKv1.3)?
**A.** 0.15 nM

**Q.** And the IC50 [2]?
**A.** 0.067 nM

**Q.** With `CCCC[C@@H]1NC(=O)[C@H](CO)NC(=O)[C@H](Cc2c[nH]cn2)NC(=O)[C@H](CCCCN)NC(=O)[C@@H]2CSSC[C@@H]3NC(=O)[C@H]([C@@H](C)O)NC(=O)[C@H](CCCCN)NC(=O)[C@H](CCCNC(=N)N)NC(=O)[C@H](CSSC[C@H](NC(=O)[C@H](CCCNC(=N)N)NC(=O)[C@H](CO)NC(=O)[C@H](CCCCN)NC(=O)[C@@H]4CCCN4C(=O)[C@H]([C@@H](C)CC)NC(=O)[C@H]([C@@H](C)O)NC(=O)[C@H](CC(=O)O)NC(=O)[C@H]([C@@H](C)CC)NC(=O)[C@@H](NC(=O)[C@H](CO)NC(=O)[C@@H](N)CCCNC(=N)N)CSSC[C@@H](C(=O)N[C@@H](CC(=O)O)C(N)=O)NC(=O)[C@H]([C@@H](C)O)NC(=O)CNC3=O)C(=O)N[C@@H]([C@@H](C)O)C(=O)N[C@@H](C)C(=O)N[C@@H](Cc3ccccc3)C(=O)N[C@@H](CCCCN)C(=O)N2)NC(=O)[C@H](Cc2ccccc2)NC(=O)[C@H](CO)NC(=O)[C@H](CC(C)C)NC(=O)[C@H](CCCNC(=N)N)NC(=O)[C@H](Cc2ccc(O)cc2)NC(=O)[C@H](CCCCN)NC1=O` [[Lys16, Nle21]ShK-Asp-amide] as the molecule, how does the IC50 [1] read?
**A.** 0.403 nM

**Q.** And the IC50 (hKv1.3)?
**A.** 0.39 nM

**Q.** And the IC50 [2]?
**A.** 0.295 nM

**Q.** Which IC50 [1] does the source give for `CCCC[C@@H]1NC(=O)[C@H](CO)NC(=O)[C@H](Cc2c[nH]cn2)NC(=O)[C@H](CCCCN)NC(=O)[C@@H]2CSSC[C@@H]3NC(=O)[C@H]([C@@H](C)O)NC(=O)[C@H](CCCCN)NC(=O)[C@H](CCCNC(=N)N)NC(=O)[C@H](CSSC[C@H](NC(=O)[C@H](CCCNC(=N)N)NC(=O)[C@H](CO)NC(=O)[C@H](CCC(=O)O)NC(=O)[C@@H]4CCCN4C(=O)[C@H]([C@@H](C)CC)NC(=O)[C@H]([C@@H](C)O)NC(=O)[C@H](CC(=O)O)NC(=O)[C@H]([C@@H](C)CC)NC(=O)[C@@H](NC(=O)[C@H](CO)NC(=O)[C@@H](N)CCCNC(=N)N)CSSC[C@@H](C(N)=O)NC(=O)[C@H]([C@@H](C)O)NC(=O)CNC3=O)C(=O)N[C@@H]([C@@H](C)O)C(=O)N[C@@H](C)C(=O)N[C@@H](Cc3ccccc3)C(=O)N[C@@H](CCCCN)C(=O)N2)NC(=O)[C@H](Cc2ccccc2)NC(=O)[C@H](CO)NC(=O)[C@H](CC(C)C)NC(=O)[C@H](CCCNC(=N)N)NC(=O)[C@H](Cc2ccc(O)cc2)NC(=O)[C@H](CCCCN)NC1=O` [[Glu9, Lys16,Nle21]ShK-amide] here?
**A.** 0.342 nM

**Q.** What about the IC50 (hKv1.3) of the same molecule?
**A.** 0.263 nM

**Q.** And the IC50 [2]?
**A.** 0.257 nM
